Measurements as given in US9150592B2, “Heterocyclic nuclear hormone receptor modulators” (AbbVie Inc., priority 2012, dated 2015).

How the values were obtained:
[1] = tested on: IL-6 in A549 cells stimulated with IL-1β; assay: A549 Cell Assay to Measure Inflammation Markers (inhibition of IL-1β-induced IL-6); assay type: cell-based; settings: Homo sapiens, intrinsic activity, Emax class ranges
How it was run: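 Compound pre-incubated with A549 cells 1 h at 37 °C, then stimulated with IL-1β (1 ng/mL final, 0.1% DMSO). Supernatant IL-6 quantified by MSD immunoassay after a further incubation. IC50 and Emax derived.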

[2] = biological target: T1, Glucocorticoid Receptor (GR) (Homo sapiens, UniProt P04150); assay: GR Fluorescence Polarization Assay (PolarScreen Glucocorticoid Receptor Competitor Assay, Red); settings: IC50 class ranges, read-out: GR binding
T1 construct: purchased Invitrogen P2893
T1 sequence (P04150 1-777): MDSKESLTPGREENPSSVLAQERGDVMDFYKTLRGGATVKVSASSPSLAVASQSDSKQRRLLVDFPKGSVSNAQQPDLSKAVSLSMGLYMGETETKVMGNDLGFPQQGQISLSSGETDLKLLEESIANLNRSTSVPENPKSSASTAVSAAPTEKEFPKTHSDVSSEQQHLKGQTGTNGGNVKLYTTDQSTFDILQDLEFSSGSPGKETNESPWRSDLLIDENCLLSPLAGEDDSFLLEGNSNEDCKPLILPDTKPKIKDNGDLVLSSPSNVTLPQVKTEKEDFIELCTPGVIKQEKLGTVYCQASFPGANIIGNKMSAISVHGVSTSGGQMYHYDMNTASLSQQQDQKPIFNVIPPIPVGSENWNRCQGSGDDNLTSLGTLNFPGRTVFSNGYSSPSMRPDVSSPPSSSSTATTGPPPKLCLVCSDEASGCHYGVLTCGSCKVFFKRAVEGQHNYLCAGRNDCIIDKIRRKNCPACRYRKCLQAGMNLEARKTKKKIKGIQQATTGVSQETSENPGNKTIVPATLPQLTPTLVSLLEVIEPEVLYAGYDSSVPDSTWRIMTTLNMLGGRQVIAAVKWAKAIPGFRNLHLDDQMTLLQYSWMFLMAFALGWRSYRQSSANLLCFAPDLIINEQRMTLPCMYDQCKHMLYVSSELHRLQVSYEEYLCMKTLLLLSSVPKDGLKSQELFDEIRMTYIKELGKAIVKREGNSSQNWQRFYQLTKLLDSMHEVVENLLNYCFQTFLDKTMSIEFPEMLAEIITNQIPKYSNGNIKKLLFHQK
How it was run: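 Competitive fluorescence-polarization assay using a red fluorescent glucocorticoid tracer with human GR in kit buffer. Compounds serially diluted 1:4 in DMSO, incubated with tracer and GR overnight at 4° C, then polarization read.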

[3] = A549, A549 Cell Assay to Measure Inflammation Markers

| SMILES | Emax [1, 3] [%] | IC50 [2] [µM] | Emax ([1]; A549 Cell Assay to Measure Inflammation Markers) [%] |
| --- | --- | --- | --- |
| Cc1cc(CCCO)ccc1[C@@H]1SC[C@H](C)Nc2c1c(-c1ccccn1)nn2C (single isomer, unassigned) [M.52, 3-(4-(1,7-dimethyl-3-(pyridin-2-yl)-4,6,7,8-tetrahydro-1H-pyrazolo[3,4-e][1,4]thiazepin-4-yl)-3-methylphenyl)propan-1-ol] | < 50 | < 0.1 |  |
| Cc1cc(C#CCCO)ccc1[C@@H]1SC[C@H](C)Nc2c1c(-c1ccccn1)nn2C (single isomer, unassigned) [M.54, 4-(4-(1,7-dimethyl-3-(pyridin-2-yl)-4,6,7,8-tetrahydro-1H-pyrazolo[3,4-e][1,4]thiazepin-4-yl)-3-methylphenyl)but-3-yn-1-ol] | < 50 | < 0.1 |  |
| Cc1cc(C#CCCO)ccc1[C@@H]1SC[C@@H](C)Nc2c1c(-c1ccccn1)nn2C (single isomer, unassigned) [M.55, 4-(4-(1,7-dimethyl-3-(pyridin-2-yl)-4,6,7,8-tetrahydro-1H-pyrazolo[3,4-e][1,4]thiazepin-4-yl)-3-methylphenyl)but-3-yn-1-ol] | < 50 | < 0.1 |  |
| Cc1cc(C(=O)Nc2cccnc2C)ccc1[C@@H]1SC[C@@H](C)Nc2c1c(-c1ccncn1)nn2C (single isomer, unassigned) [M.57, 4-(1,7-dimethyl-3-(pyrimidin-4-yl)-4,6,7,8-tetrahydro-1H-pyrazolo[3,4-e][1,4]thiazepin-4-yl)-3-methyl-N-(2-methylpyridin-3-yl)benzamide] | > 70 | < 0.1 |  |
| Cc1cc(C(=O)Nc2cccnc2C)ccc1[C@@H]1SC[C@H](C)Nc2c1c(-c1ccncn1)nn2C (single isomer, unassigned) [M.58, 4-(1,7-dimethyl-3-(pyrimidin-4-yl)-4,6,7,8-tetrahydro-1H-pyrazolo[3,4-e][1,4]thiazepin-4-yl)-3-methyl-N-(2-methylpyridin-3-yl)benzamide] | > 70 | < 0.1 |  |
| CCn1nc(-c2ccccn2)c2c1NCCSC2c1ccc(C(=O)Nc2cccnc2C)cc1C (single isomer, unassigned) [M.62, 4-(1-ethyl-3-(pyridin-2-yl)-4,6,7,8-tetrahydro-1H-pyrazolo[3,4-e][1,4]thiazepin-4-yl)-3-methyl-N-(2-methylpyridin-3-yl)benzamide] | > 70 | < 0.1 |  |
| CCn1nc(-c2ccccn2)c2c1NCCSC2c1ccc(C(=O)Nc2cccnc2C)cc1C(F)(F)F (single isomer, unassigned) [M.68, 4-(1-ethyl-3-(pyridin-2-yl)-4,6,7,8-tetrahydro-1H-pyrazolo[3,4-e][1,4]thiazepin-4-yl)-N-(2-methylpyridin-3-yl)-3-(trifluoromethyl)benzamide] | > 70 | 1 to 10 |  |
| Cc1cc(C#CCO)ccc1[C@@H]1SC[C@@H](C)Nc2c1c(-c1ccccn1)nn2C (single isomer, unassigned) [M.70, 3-(4-(1,7-dimethyl-3-(pyridin-2-yl)-4,6,7,8-tetrahydro-1H-pyrazolo[3,4-e][1,4]thiazepin-4-yl)-3-methylphenyl)prop-2-yn-1-ol] | < 50 | < 0.1 |  |
| Cc1cc(C#CCO)ccc1[C@@H]1SC[C@H](C)Nc2c1c(-c1ccccn1)nn2C (single isomer, unassigned) [M.71, 3-(4-(1,7-dimethyl-3-(pyridin-2-yl)-4,6,7,8-tetrahydro-1H-pyrazolo[3,4-e][1,4]thiazepin-4-yl)-3-methylphenyl)prop-2-yn-1-ol] | < 50 | < 0.1 |  |
| CCn1nc(-c2ccccn2)c2c1NC(=O)CCC2c1ccc(Br)cc1C (stereo not drawn) [AA.1, 4-(4-Bromo-2-methylphenyl)-1-ethyl-3-(pyridin-2-yl)-4,5,6,8-tetrahydropyrazolo[3,4-b]azepin-7(1H)-one] | < 50 | < 0.1 |  |
| CCn1nc(-c2ccccn2)c2c1NCCCC2c1ccc(Br)cc1C (stereo not drawn) [BB.1, 4-(4-bromo-2-methylphenyl)-1-ethyl-3-(pyridin-2-yl)-1,4,5,6,7,8-hexahydropyrazolo[3,4-b]azepine] | > 70 | < 0.1 |  |
| Cn1nc(-c2ccccn2)c2c1NC(=O)CSC2c1ccc(Br)cc1Cl (stereo not drawn) [C.2, 4-(4-bromo-2-chloro-phenyl)-1-methyl-3-(2-pyridyl)-4,8-dihydropyrazolo[3,4-e][1,4]thiazepin-7-one] |  | 0.1 to 1 | < 50 |
| Cc1cc(Cl)ccc1C1SCCNc2c1c(-c1ccccn1)nn2C (stereo not drawn) [D.1, 4-(4-chloro-2-methyl-phenyl)-1-methyl-3-(2-pyridyl)-4,6,7,8-tetrahydro-pyrazolo[3,4-e][1,4]thiazepine] | > 60 | < 0.1 |  |
| Cn1nc(-c2ccccn2)c2c1NCCSC2c1c(Cl)cccc1Cl (stereo not drawn) [D.2] | < 50 | 1 to 10 |  |
| Cn1nc(-c2ccccn2)c2c1NCCSC2c1ccc(Cl)cc1C(F)(F)F (stereo not drawn) [D.3] | < 50 | < 0.1 |  |
| Cc1nn(C)c2c1C(c1ccc(Cl)cc1Cl)SC(C)(C)CN2 (stereo not drawn) [D.4, 4-(2,4-dichlorophenyl)-1,3,6,6-tetramethyl-7,8-dihydro-4H-pyrazolo[3,4-e][1,4]thiazepine] | < 50 | < 0.1 |  |
| COc1cc(Cl)ccc1C1SCCNc2c1c(-c1ccccn1)nn2C (stereo not drawn) [D.5] | < 50 | < 0.1 |  |
| CN(C)c1ccc(C2SCCNc3c2c(-c2ccccn2)nn3C)c(Cl)c1 (stereo not drawn) [D.6] | < 50 | 0.1 to 1 |  |
| Cn1nc(-c2ccccn2)c2c1NCCSC2c1ccncc1Cl (stereo not drawn) [D.7] | < 50 | < 0.1 |  |
| Cn1nc(-c2ccccn2)c2c1NCCSC2c1ccc(Cl)cc1Cl (stereo not drawn) [D.8, 4-(2,4-dichlorophenyl)-1-methyl-3-(2-pyridyl)-4,6,7,8-tetrahydropyrazolo[3,4-e][1,4]thiazepine] | < 50 | < 0.1 |  |

| SMILES | Emax [1, 3] [%] | IC50 [2] [µM] | Emax ([1]; A549 Cell Assay to Measure Inflammation Markers) [%] |
| --- | --- | --- | --- |
| Cc1ccc(C2SCCNc3c2c(-c2ccccn2)nn3C)c(C)c1 (stereo not drawn) [D.9] | < 50 | < 0.1 |  |
| COc1ccc(C2SCCNc3c2c(-c2ccccn2)nn3C)c(C)c1 (stereo not drawn) [D.10] | < 50 | < 0.1 |  |
| Cc1cc(F)ccc1C1SCCNc2c1c(-c1ccccn1)nn2C (stereo not drawn) [D.11] | > 50 | < 0.1 |  |
| Cc1cc(OC(F)(F)F)ccc1C1SCCNc2c1c(-c1ccccn1)nn2C (stereo not drawn) [D.12] | < 50 | < 0.1 |  |
| Cc1cc(Cl)ccc1C1SCCNc2nn(C)cc21 (stereo not drawn) [D.13] | < 50 | 1 to 10 |  |
| Cc1ccccc1C1SCCNc2c1c(-c1ccccn1)nn2C (stereo not drawn) [D.14] | < 50 | < 0.1 |  |
| Cn1nc(-c2ccc(Br)cn2)c2c1NCCSC2c1ccc(Cl)cc1Cl (stereo not drawn) [D.15, 3-(5-bromo-2-pyridyl)-4-(2,4-dichlorophenyl)-1-methyl-4,6,7,8-tetrahydropyrazolo[3,4-e][1,4]thiazepine] | < 50 | < 0.1 |  |
| Cn1nc(-c2nccs2)c2c1NCCSC2c1ccc(Cl)cc1Cl (stereo not drawn) [D.16] | < 50 | < 0.1 |  |
| Cn1nc(-c2nccs2)c2c1NCC(C)(C)SC2c1ccc(Cl)cc1Cl (stereo not drawn) [D.17] | < 50 | 0.1 to 1 |  |
| Cn1nc(-c2ccncc2)c2c1NCCSC2c1ccc(Cl)cc1Cl (stereo not drawn) [D.18] | < 50 | 0.1 to 1 |  |
| Cc1cc(Cl)ccc1C1SCCNc2c1c(-c1cc(Br)ccn1)nn2C (stereo not drawn) [D.19] | < 50 | < 0.1 |  |
| Cc1ccc(C)c(C2SCCNc3c2c(-c2ccccn2)nn3C)c1 (stereo not drawn) [D.20] | < 50 | < 0.1 |  |
| Cc1cc(Cl)cnc1C1SCCNc2c1c(-c1ccccn1)nn2C (stereo not drawn) [D.21] | < 50 | 0.1 to 1 |  |
| COc1ccnc(-c2nn(C)c3c2C(c2ccc(Cl)cc2C)SCCN3)c1 (stereo not drawn) [D.22] | < 50 | < 0.1 |  |
| Cn1nc(-c2ccccn2)c2c1NCCSC2c1ccc(Cl)cc1 (stereo not drawn) [D.23] | < 50 | 0.1 to 1 |  |
| Cc1cc(Cl)ccc1C1SCCNc2c1c(-c1cc(Cl)ccn1)nn2C (stereo not drawn) [D.24] | < 50 | < 0.1 |  |
| Cn1nc(-c2ccccn2)c2c1NCCSC2c1ccc(Br)cc1 (stereo not drawn) [D.25, 4-(4-bromophenyl)-1-methyl-3-(2-pyridyl)-4,6,7,8-tetrahydropyrazolo[3,4-e][1,4]thiazepine] | < 50 | 0.1 to 1 |  |
| Cc1cc(Br)sc1C1SCCNc2c1c(-c1ccccn1)nn2C (stereo not drawn) [D.26, 4-(5-bromo-3-methyl-2-thienyl)-1-methyl-3-(2-pyridyl)-4,6,7,8-tetrahydropyrazolo[3,4-e][1,4]thiazepine] | < 50 | < 0.1 |  |
| Cc1ccc(Br)cc1C1SCCNc2c1c(-c1ccccn1)nn2C (stereo not drawn) [D.27, 4-(5-bromo-2-methyl-phenyl)-1-methyl-3-(2-pyridyl)-4,6,7,8-tetrahydropyrazolo[3,4-e][1,4]thiazepine] | < 50 | < 0.1 |  |
